The values below come from patent US9499550B2 (BRISTOL-MYERS SQUIBB COMPANY, priority 2012, dated 2016).

Bounds are passed on as bounds.

By EC50 is commonly meant the concentration at which the effect is half-maximal.

In test [1] the test system is HCV genotype 1a (H77 strain) replicon in HUH-7 cells. In words: HCV replicon luciferase reporter assay, genotype 1a. It is filed as cell-based. The conditions noted are these: Hepatitis C virus, Huh-7, 72 h, HCV genotype 1a replicon luciferase assay, 3 days incubation, range class, read-out: LE_1a (EC50, range). In short, it runs like this:
(§1)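 Replicon inhibition for both genotypes was measured as Renilla luciferase signal (EnduRen, 7.5 μM final, 2 h) after 3-day, 37° C exposure of replicon-bearing HUH-7 cells in 4% FCS DMEM, 0.5% DMSO. The 1b construct carries S1179I; the 1a H77 construct carries P1496L and S2204I. Twenty-point, 3-fold dilutions were fitted four-parametrically for EC50, and CC50 was taken from multiplexed Cell Titer-Blue.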
A general note: A replicon is a self-replicating genome or part of one, used to study replication in cells.

Test [2] deals with HCV genotype 1b (Con1) replicon in HUH-7 cells. In words: HCV replicon luciferase reporter assay, genotype 1b. The test is classed as cell-based. The conditions noted are these: Hepatitis C virus, Huh-7, 72 h, HCV genotype 1b replicon luciferase assay, 3 days incubation, range class, read-out: LE_1b (EC50, range). In short, it runs like this: as §1

With `CCCOc1cc2c(Cl)cccc2c(O[C@@H]2C[C@H]3C(=O)N[C@]4(C(=O)NS(=O)(=O)C5CC5)C[C@H]4/C=C\CC[C@H](C)C[C@@H](C)[C@H](NC(=O)OC(C)(C)C)C(=O)N3C2)n1` [Compound 1069, tert-butyl ((2R,6S,7R,9S,13aS,14aR,16aS,Z)-2-((5-chloro-3-propoxyisoquinolin-1-yl)oxy)-14a-((cyclopropylsulfonyl)carbamoyl)-7,9-dimethyl-5,16-dioxo-1,2,3,5,6,7,8,9,10,11,13a,14,14a,15,16,16a-hexadecahydrocyclopropa[e]pyrrolo[1,2-a][1,4]diazacyclopentadecin-6-yl)carbamate], the EC50 in test [1] and in test [2] was less than 5.46 nM in each case.
For `CCCOc1cc2c(Cl)cccc2c(O[C@@H]2C[C@H]3C(=O)N[C@]4(C(=O)NS(=O)(=O)C5CC5)C[C@H]4/C=C\CC[C@@H](C)C[C@@H](C)[C@H](NC(=O)OC(C)(C)C)C(=O)N3C2)n1` [Compound 1070, tert-butyl ((2R,6S,7R,9R,13aS,14aR,16aS,Z)-2-((5-chloro-3-propoxyisoquinolin-1-yl)oxy)-14a-((cyclopropylsulfonyl)carbamoyl)-7,9-dimethyl-5,16-dioxo-1,2,3,5,6,7,8,9,10,11,13a,14,14a,15,16,16a-hexadecahydrocyclopropa[e]pyrrolo[1,2-a][1,4]diazacyclopentadecin-6-yl)carbamate], the EC50 in test [1] and in test [2] was less than 5.46 nM throughout.
Consider `CCCOc1cc2c(Cl)cccc2c(O[C@@H]2C[C@H]3C(=O)N[C@]4(C(=O)NS(=O)(=O)C5(C)CC5)C[C@H]4/C=C\CC[C@H](C)C[C@@H](C)[C@H](NC(=O)OC(C)(C)C)C(=O)N3C2)n1` [Compound 1071, tert-butyl ((2R,6S,7R,9S,13aS,14aR,16aS,Z)-2-((5-chloro-3-propoxyisoquinolin-1-yl)oxy)-7,9-dimethyl-14a-(((1-methylcyclopropyl)sulfonyl)carbamoyl)-5,16-dioxo-1,2,3,5,6,7,8,9,10,11,13a,14,14a,15,16,16a-hexadecahydrocyclopropa[e]pyrrolo[1,2-a][1,4]diazacyclopentadecin-6-yl)carbamate], for which the EC50 in test [1] and in test [2] was less than 5.46 nM in each case.
For `CCCOc1cc2c(Cl)cccc2c(O[C@@H]2C[C@H]3C(=O)N[C@]4(C(=O)NS(=O)(=O)C5(C)CC5)C[C@H]4/C=C\CC[C@@H](C)C[C@@H](C)[C@H](NC(=O)OC(C)(C)C)C(=O)N3C2)n1` [Compound 1072, tert-butyl ((2R,6S,7R,9R,13aS,14aR,16aS,Z)-2-((5-chloro-3-propoxyisoquinolin-1-yl)oxy)-7,9-dimethyl-14a-(((1-methylcyclopropyl)sulfonyl)carbamoyl)-5,16-dioxo-1,2,3,5,6,7,8,9,10,11,13a,14,14a,15,16,16a-hexadecahydrocyclopropa[e]pyrrolo[1,2-a][1,4]diazacyclopentadecin-6-yl)carbamate], the EC50 in test [1] and in test [2] was less than 5.46 nM each time.
Take `C[C@H]1CC/C=C\[C@@H]2C[C@@]2(C(=O)NS(=O)(=O)C2(C)CC2)NC(=O)[C@@H]2C[C@@H](Oc3nc(OCC(F)F)cc4c(Cl)cccc34)CN2C(=O)[C@@H](NC(=O)OC(C)(C)C)[C@H](C)C1` [Compound 1073, tert-butyl ((2R,6S,7R,9S,13aS,14aR,16aS,Z)-2-((5-chloro-3-(2,2-difluoroethoxyl)isoquinolin-1-yl)oxy)-7,9-dimethyl-14a-(((1-methylcyclopropyl)sulfonyl)carbamoyl)-5,16-dioxo-1,2,3,5,6,7,8,9,10,11,13a,14,14a,15,16,16a-hexadecahydrocyclopropa[e]pyrrolo[1,2-a][1,4]diazacyclopentadecin-6-yl)carbamate]: the EC50 in test [1] and in test [2] was less than 5.46 nM in each case.
On to `C[C@@H]1CC/C=C\[C@@H]2C[C@@]2(C(=O)NS(=O)(=O)C2(C)CC2)NC(=O)[C@@H]2C[C@@H](Oc3nc(OCC(F)F)cc4c(Cl)cccc34)CN2C(=O)[C@@H](NC(=O)OC(C)(C)C)[C@H](C)C1` [Compound 1074, tert-butyl ((2R,6S,7R,9R,13aS,14aR,16aS,Z)-2-((5-chloro-3-(2,2-difluoroethoxyl)isoquinolin-1-yl)oxy)-7,9-dimethyl-14a-(((1-methylcyclopropyl)sulfonyl)carbamoyl)-5,16-dioxo-1,2,3,5,6,7,8,9,10,11,13a,14,14a,15,16,16a-hexadecahydrocyclopropa[e]pyrrolo[1,2-a][1,4]diazacyclopentadecin-6-yl)carbamate], for which the EC50 in test [1] and in test [2] was less than 5.46 nM throughout.
`C[C@H]1CC/C=C\[C@@H]2C[C@@]2(C(=O)NS(=O)(=O)C2CC2)NC(=O)[C@@H]2C[C@@H](Oc3nc(OCC(F)F)cc4c(Cl)cccc34)CN2C(=O)[C@@H](NC(=O)OC(C)(C)C)[C@H](C)C1` [Compound 1075, tert-butyl ((2R,6S,7R,9S,13aS,14aR,16aS,Z)-2-((5-chloro-3-(2,2-difluoroethoxy)isoquinolin-1-yl)oxy)-14a-((cyclopropylsulfonyl)carbamoyl)-7,9-dimethyl-5,16-dioxo-1,2,3,5,6,7,8,9,10,11,13a,14,14a,15,16,16a-hexadecahydrocyclopropa[e]pyrrolo[1,2-a][1,4]diazacyclopentadecin-6-yl)carbamate]: the EC50 in test [1] and in test [2] was less than 5.46 nM throughout.
On to `C[C@@H]1CC/C=C\[C@@H]2C[C@@]2(C(=O)NS(=O)(=O)C2CC2)NC(=O)[C@@H]2C[C@@H](Oc3nc(OCC(F)F)cc4c(Cl)cccc34)CN2C(=O)[C@@H](NC(=O)OC(C)(C)C)[C@H](C)C1` [Compound 1076, tert-butyl ((2R,6S,7R,9R,13aS,14aR,16aS,Z)-2-((5-chloro-3-(2,2-difluoroethoxyl)isoquinolin-1-yl)oxy)-14a-((cyclopropylsulfonyl)carbamoyl)-7,9-dimethyl-5,16-dioxo-1,2,3,5,6,7,8,9,10,11,13a,14,14a,15,16,16a-hexadecahydrocyclopropa[e]pyrrolo[1,2-a][1,4]diazacyclopentadecin-6-yl)carbamate], for which the EC50 in test [1] and in test [2] was less than 5.46 nM each time.
As for `CCCOc1cc2c(Cl)cccc2c(O[C@@H]2C[C@H]3C(=O)N[C@]4(C(=O)NS(=O)(=O)C5(C)CC5)C[C@H]4/C=C\CC[C@H](C)C[C@@H](C)[C@H](NC(=O)OC(C)(C)C(F)(F)F)C(=O)N3C2)n1` [Compound 1077, 1,1,1-trifluoro-2-methylpropan-2-yl((2R,6S,7R,9S,13aS,14aR,16aS,Z)-2-((5-chloro-3-propoxyisoquinolin-1-yl)oxy)-7,9-dimethyl-14a-(((1-methylcyclopropyl)sulfonyl)carbamoyl)-5,16-dioxo-1,2,3,5,6,7,8,9,10,11,13a,14,14a,15,16,16a-hexadecahydrocyclopropa[e]pyrrolo[1,2-a][1,4]diazacyclopentadecin-6-yl)carbamate], the EC50 is 4.82 to 103 nM in test [1] and less than 5.46 nM in test [2].
Taken in the same sequence, the figures for `CCCOc1cc2c(Cl)cccc2c(O[C@@H]2C[C@H]3C(=O)N[C@]4(C(=O)NS(=O)(=O)C5(C)CC5)C[C@H]4/C=C\CC[C@@H](C)C[C@@H](C)[C@H](NC(=O)OC(C)(C)C(F)(F)F)C(=O)N3C2)n1` [Compound 1078, 1,1,1-trifluoro-2-methylpropan-2-yl((2R,6S,7R,9R,13aS,14aR,16aS,Z)-2-((5-chloro-3-propoxyisoquinolin-1-yl)oxy)-7,9-dimethyl-14a-(((1-methylcyclopropyl)sulfonyl)carbamoyl)-5,16-dioxo-1,2,3,5,6,7,8,9,10,11,13a,14,14a,15,16,16a-hexadecahydrocyclopropa[e]pyrrolo[1,2-a][1,4]diazacyclopentadecin-6-yl)carbamate] were less than 5.46 nM and less than 5.46 nM.
Taken in the same sequence, the figures for `CCCOc1cc2c(Cl)cccc2c(O[C@@H]2C[C@H]3C(=O)N[C@]4(C(=O)NS(=O)(=O)C5(C)CC5)C[C@H]4/C=C\CC[C@H](C)C[C@@H](C)[C@H](NC(=O)O[C@H](C)C(F)(F)F)C(=O)N3C2)n1` [Compound 1079, (R)-1,1,1-trifluoropropan-2-yl ((2R,6S,7R,9S,13aS,14aR,16aS,Z)-2-((5-chloro-3-propoxyisoquinolin-1-yl)oxy)-7,9-dimethyl-14a-(((1-methylcyclopropyl)sulfonyl)carbamoyl)-5,16-dioxo-1,2,3,5,6,7,8,9,10,11,13a,14,14a,15,16,16a-hexadecahydrocyclopropa[e]pyrrolo[1,2-a][1,4]diazacyclopentadecin-6-yl)carbamate] were 4.82 to 103 nM and less than 5.46 nM.
Taken in the same sequence, the figures for `CCCOc1cc2c(Cl)cccc2c(O[C@@H]2C[C@H]3C(=O)N[C@]4(C(=O)NS(=O)(=O)C5(C)CC5)C[C@H]4/C=C\CC[C@@H](C)C[C@@H](C)[C@H](NC(=O)O[C@H](C)C(F)(F)F)C(=O)N3C2)n1` [Compound 1080, (R)-1,1,1-trifluoropropan-2-yl ((2R,6S,7R,9R,13aS,14aR,16aS,Z)-2-((5-chloro-3-propoxyisoquinolin-1-yl)oxy)-7,9-dimethyl-14a-(((1-methylcyclopropyl)sulfonyl)carbamoyl)-5,16-dioxo-1,2,3,5,6,7,8,9,10,11,13a,14,14a,15,16,16a-hexadecahydrocyclopropa[e]pyrrolo[1,2-a][1,4]diazacyclopentadecin-6-yl)carbamate] were less than 5.46 nM and less than 5.46 nM.
